The record followed here is patent US20040072862A1, “Compositions for treating ischemia-related neuronal damage” (priority 1999, published 2004).

The structures appear in SMILES notation. pEC50: −log10 of the molar value.

The test system of data set [1] is OGD cells (retinal ganglion cells). Kind of data set: Increase in survival of OGD cells, dose-dependent data. It counts as cell-based, Sprague-Dawley rat. Here is the method: (§1) Untreated OGD cells were also included as controls.
(§2) The tissue was then disrupted sequentially with a 1 ml pipette, in a solution containing ovomucoid (Boehringer-Mannheim), DNase (Sigma), and bovine serum albumin (BSA; Sigma) to yield a single cell suspension. The cells were then washed in a suspension of ovomucoid/BSA.

The subject of data set [2] is Oxygen/Glucose Deprived RGCs. The experiment in a line: Protection of oxygen/glucose deprived (OGD) retinal ganglion cells, EC50. It counts as cell-based, Sprague-Dawley rat. The settings on record: Rattus norvegicus; compound added from 30 min prior to OGD, during OGD, and 24 and 48 h after OGD. Here is the method: as §1, §2

For orientation: pEC50 means the negative decadic logarithm of the EC50, by convention in mol/L. The low end stands for a large EC50, the high end for a small EC50.

For `Oc1cccc2nc(Cc3nc4ccccc4[nH]3)[nH]c12` [SNX-926, 2-(benzimidazol-2-ylmethyl)benzimidazol-7-ol], in data set [1] (Rattus norvegicus, 0.001 μM, read-out: Percent Increase in Survival over OGD Control Cells), the activation at 0.001 µM was less than 50%. Further, in data set [1] (Rattus norvegicus, 0.01 μM, read-out: Percent Increase in Survival over OGD Control Cells), the activation at 0.01 µM is 50 to 100%. In addition, the activation at 0.1 µM in data set [1] (Rattus norvegicus, 0.1 μM, read-out: Percent Increase in Survival over OGD Control Cells) was more than 100%. Besides, in data set [1] (Rattus norvegicus, 1 μM, read-out: Percent Increase in Survival over OGD Control Cells), the activation at 1 µM was more than 100%. For the same compound, the activation at 10 µM in data set [1] (Rattus norvegicus, 10 μM, read-out: Percent Increase in Survival over OGD Control Cells) was 50 to 100%. In addition, the “TI (therapeutic index)” value in data set [1] (rat, retinal ganglion cells) is more than 250. The same compound gave a pEC50 in data set [2] of 7.40.
